Results on 33 molecules are retold here after ChEMBL document CHEMBL3751669, “Structural refinement of pyrazolo[4,3-d]pyrimidine derivatives to obtain highly potent and selective antagonists for the human A3 adenosine receptor” (Eur J Med Chem, 2016).

Assay [1] deals with T1, Adenosine receptor A3 (Homo sapiens, UniProt P0DMS8).
T1 sequence (P0DMS8 whole entry): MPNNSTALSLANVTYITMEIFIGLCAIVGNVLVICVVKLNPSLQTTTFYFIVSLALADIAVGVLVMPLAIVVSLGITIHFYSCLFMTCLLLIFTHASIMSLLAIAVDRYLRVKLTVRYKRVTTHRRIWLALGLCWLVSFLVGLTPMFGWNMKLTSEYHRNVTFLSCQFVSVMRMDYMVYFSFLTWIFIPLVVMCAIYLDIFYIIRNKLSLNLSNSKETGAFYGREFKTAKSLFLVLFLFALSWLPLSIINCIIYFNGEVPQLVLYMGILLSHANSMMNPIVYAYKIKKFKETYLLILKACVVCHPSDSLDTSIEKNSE
As to the kind of experiment: Displacement of [125I]AB-MECA at human […] receptor expressed in CHO cell membrane after 60 mins by scintillation counting method. Type of assay: cell membranes. Background: Loss of bound radioactivity is the signal in a displacement assay; it reports binding, not function.

Assay [2] concerns the target Adenosine receptor A2a (Homo sapiens, UniProt P29274). Briefly: Displacement of [3H]ZM241385 at human A2A receptor expressed in CHO cell membrane at 1 uM after 60 mins by scintillation counting method. Type of assay: cell membranes.
The target of assay [3] is T2, Adenosine receptor A2b (Homo sapiens) (UniProt P29275).
T2 sequence (whole entry): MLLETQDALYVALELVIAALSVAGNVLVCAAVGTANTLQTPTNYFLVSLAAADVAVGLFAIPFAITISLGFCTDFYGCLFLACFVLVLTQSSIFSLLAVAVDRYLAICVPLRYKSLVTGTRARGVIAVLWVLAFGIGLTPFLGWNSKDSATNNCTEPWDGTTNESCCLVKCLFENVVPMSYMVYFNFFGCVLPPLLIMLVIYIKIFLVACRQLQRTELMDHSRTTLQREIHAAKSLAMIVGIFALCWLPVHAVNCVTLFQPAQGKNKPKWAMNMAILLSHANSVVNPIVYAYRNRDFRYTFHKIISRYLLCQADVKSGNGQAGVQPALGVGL
As to the kind of experiment: Antagonist activity at human A2B receptor expressed in CHO cells assessed as inhibition of NECA-stimulated cAMP production at 1 uM by scintillation counting method. The class given is functional, cell-based. A general note: Changes in cAMP serve as a functional read-out for many G protein-coupled receptors.

In assay [4] the target is T3, Adenosine receptor A1 (Homo sapiens) (UniProt P30542).
T3 sequence (whole entry): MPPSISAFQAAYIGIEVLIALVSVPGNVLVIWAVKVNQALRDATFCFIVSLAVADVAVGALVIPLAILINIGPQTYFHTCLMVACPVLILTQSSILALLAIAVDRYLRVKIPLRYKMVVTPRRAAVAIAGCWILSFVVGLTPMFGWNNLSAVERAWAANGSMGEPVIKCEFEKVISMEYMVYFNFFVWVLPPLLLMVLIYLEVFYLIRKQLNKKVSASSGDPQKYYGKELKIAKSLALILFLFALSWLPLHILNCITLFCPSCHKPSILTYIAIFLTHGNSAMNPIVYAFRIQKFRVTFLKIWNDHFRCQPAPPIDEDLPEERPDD
Briefly: Displacement of [3H]DPCPX at human A1 receptor expressed in CHO cell membrane at 1 uM after 120 mins by scintillation counting method. Type of assay: cell membranes.

In assay [5] the target is T4, Adenosine receptor A3 (Homo sapiens) (UniProt P0DMS8).
T4 sequence (whole entry): T1 sequence (P0DMS8 whole entry)
Briefly: Displacement of [125I]AB-MECA at human […] receptor expressed in CHO cell membrane at 1 uM after 60 mins by scintillation counting method. The class given is cell membranes.

In assay [6] the target is T5, Adenosine receptor A3 (Rattus norvegicus, UniProt P28647).
T5 sequence (P28647 whole entry): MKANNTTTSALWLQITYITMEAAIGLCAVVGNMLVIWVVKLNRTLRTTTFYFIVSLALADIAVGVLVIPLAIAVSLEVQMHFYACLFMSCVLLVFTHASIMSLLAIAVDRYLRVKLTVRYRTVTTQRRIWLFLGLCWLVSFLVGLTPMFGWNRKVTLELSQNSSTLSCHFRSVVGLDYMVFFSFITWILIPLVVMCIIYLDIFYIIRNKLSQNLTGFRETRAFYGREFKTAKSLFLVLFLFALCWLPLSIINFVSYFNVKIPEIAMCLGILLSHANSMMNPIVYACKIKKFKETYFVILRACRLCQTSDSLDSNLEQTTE
As to the kind of experiment: Displacement of [125I]AB-MECA at rat A3 receptor expressed in HEK293 cells after 60 mins by scintillation counting method. The class given is cell-based.

Assay [7] concerns the target T1, Adenosine receptor A3. As to the kind of experiment: Antagonist activity at human A3 receptor expressed in CHO cells assessed as inhibition of Cl-IB-MECA-induced cAMP production by scintillation counting method. The class given is functional, cell-based.
In assay [8] the target is T6, Adenosine receptor A1 (Homo sapiens, UniProt P30542).
T6 sequence (P30542 whole entry): T3 sequence (whole entry)
Briefly: Displacement of [3H]DPCPX at human A1 receptor expressed in CHO cell membrane after 120 mins by scintillation counting method. The class given is cell membranes.

Where only a bound is given, the exact number is not on record here.

Sequence of Adenosine receptor A2a (P29274 whole entry): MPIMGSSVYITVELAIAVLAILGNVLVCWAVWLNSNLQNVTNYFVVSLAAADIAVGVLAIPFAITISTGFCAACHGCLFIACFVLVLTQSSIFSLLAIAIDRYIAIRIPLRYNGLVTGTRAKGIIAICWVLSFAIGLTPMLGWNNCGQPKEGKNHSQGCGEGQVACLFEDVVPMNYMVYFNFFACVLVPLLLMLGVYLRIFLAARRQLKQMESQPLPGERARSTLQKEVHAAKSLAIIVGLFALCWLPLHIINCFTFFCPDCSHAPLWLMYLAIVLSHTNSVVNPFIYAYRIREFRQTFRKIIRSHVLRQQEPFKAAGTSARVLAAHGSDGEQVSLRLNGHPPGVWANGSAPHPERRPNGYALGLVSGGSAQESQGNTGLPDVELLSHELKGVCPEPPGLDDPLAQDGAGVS

In general, Ki refers to the dissociation constant of the complex between target and ligand, obtained from inhibition or displacement. One may read the inhibition as how much of the control response was suppressed. In turn, `O=c1[nH]c(-c2cccs2)nc2cn(-c3ccccc3)nc12` returned a Ki in assay [1] of 413 nM. Further, the inhibition in assay [2] is 14%; in assay [3], 1%; in assay [4], 6%.

`Cn1cc2nc(-c3ccccc3)nc(N)c2n1`: the inhibition in assay [5] turned out to be 1%; in assay [2], 1%; in assay [3] it was 1%; in assay [4] it was 31%.

What is called IC50 is the concentration at which inhibition is half-maximal. Turning to `COc1ccc(-c2nc(NC(=O)c3ccncc3)c3nn(-c4ccccc4)cc3n2)cc1`, the Ki in assay [1] was 9.83 nM; in assay [6], more than 10000 nM. The figures for the inhibition in assay [2], in assay [3] and in assay [4] were 1%, 1% and 3%, respectively. The IC50 in assay [7] was found to be 39 nM.

For the molecule `O=c1[nH]c(-c2ccco2)nc2cn(-c3ccccc3)nc12`, the inhibition was 30% in assay [5], 12% in assay [2], 1% in assay [3] and 1% in assay [4].

Consider `O=C(Nc1nc(-c2ccccc2)nc2cn(Cc3ccccc3)nc12)c1ccccc1`, for which the affinity in assay [1], expressed as Ki, was 223 nM. Moreover, the inhibition came out at 24% in assay [2], 2% in assay [3] and 36% in assay [4].

In assay [1], `O=C(Cc1ccccc1)Nc1nc(-c2ccccc2)nc2cn(Cc3ccccc3)nc12` had a Ki of 202 nM. Moreover, the figures for the inhibition in assay [2], in assay [3] and in assay [4] were 9%, 1% and 7%, respectively.

On to `Cc1nc2cn(-c3ccccc3)nc2c(=O)[nH]1`, for which, in assay [3], the inhibition amounted to 3%.

As to `O=C(Nc1nc(-c2cccs2)nc2cn(-c3ccccc3)nc12)c1cccnc1`, the Ki came out at 764 nM in assay [8] and 0.41 nM in assay [1]. Besides, the inhibition was found to be 3% in assay [2] and 1% in assay [3]. Also, the half-inhibitory concentration (IC50) in assay [7] worked out at 1.01 nM.

On to `Cn1cc2nc(-c3ccccc3)[nH]c(=O)c2n1`, for which the inhibition came out at 20% in assay [5], 1% in assay [2], 1% in assay [3] and 1% in assay [4].

`COc1ccc(-c2nc(N)c3nn(-c4ccccc4)cc3n2)cc1` displayed a Ki in assay [1] of 33 nM. The inhibition worked out at 1% in assay [2], 2% in assay [3] and 33% in assay [4].

As to `Nc1nc(-c2ccc(O)cc2)nc2cn(-c3ccccc3)nc12`, the Ki in assay [1] came out at 432 nM. Moreover, the inhibition in assay [2] is 33%; in assay [3], 7%; in assay [4], 31%.

`COc1ccc(-n2cc3nc(-c4cccs4)[nH]c(=O)c3n2)cc1` returned a Ki in assay [1] of 247 nM. For the same molecule, the inhibition stood at 1% in assay [2], 1% in assay [3] and 5% in assay [4].

Consider `O=C(Nc1nc(-c2cccs2)nc2cn(-c3ccccc3)nc12)c1ccncc1`, for which the Ki in assay [1] is 9.54 nM; in assay [6], more than 10000 nM. Also, the inhibition turned out to be 1% in assay [2], 1% in assay [3] and 20% in assay [4]. Further, in assay [7], the concentration for half-maximal inhibition (IC50) is 37 nM.

`COc1ccc(-n2cc3nc(-c4cccs4)nc(N)c3n2)cc1` returned a Ki in assay [1] of 78 nM. The inhibition in assay [2] was determined as 35%; in assay [3], 31%; in assay [4], 28%.

Regarding `O=C(Nc1nc(-c2cccs2)nc2cn(-c3ccccc3)nc12)c1cccs1`, the results for the Ki in assay [8] and in assay [1] were 466 nM and 2.43 nM, respectively. Moreover, the results for the inhibition in assay [2] and in assay [3] were 7% and 1%, respectively. Besides, the IC50 in assay [7] was determined as 5.59 nM.

Regarding `O=C(Nc1nc(-c2cccs2)nc2cn(-c3ccccc3)nc12)c1ccco1`, the Ki in assay [8] stood at 552 nM; in assay [1], 2.34 nM. In addition, the inhibition in assay [2] was determined as 21%; in assay [3], 1%. Moreover, in assay [7], the IC50 worked out at 5.47 nM.

For the molecule `COc1ccc(-c2nc3cn(C)nc3c(=O)[nH]2)cc1`, the inhibition worked out at 1% in assay [5], 1% in assay [2], 1% in assay [3] and 2% in assay [4].

On to `Cc1nc2nn(-c3ccccc3)nc2c(=O)[nH]1`, for which the affinity in assay [1], expressed as Ki, was 321 nM. Besides, the inhibition in assay [2] amounted to 14%; in assay [3], 1%; in assay [4] it was 32%.

`O=c1[nH]c(-c2ccccc2)nc2cn(Cc3ccccc3)nc12` came in with a Ki in assay [1] of 130 nM. Moreover, the inhibition came to 1% in assay [2], 1% in assay [3] and 6% in assay [4].

For `O=c1[nH]c(-c2ccccc2)nc2cn(-c3ccccc3)nc12`, in assay [3], the inhibition was determined as 5%.

With `Cc1nc2cn(C)nc2c(=O)[nH]1`, the inhibition in assay [5], in assay [2], in assay [3] and in assay [4] was 1% each time.

As to `Nc1nc(-c2ccc(Cl)cc2)nc2cn(-c3ccccc3)nc12`, the inhibition was 4% in assay [5], 1% in assay [2], 3% in assay [3] and 13% in assay [4].

In the case of `O=C(c1ccco1)N(C(=O)c1ccco1)c1nc(-c2cccs2)nc2cn(-c3ccccc3)nc12`, the Ki in assay [8] turned out to be 687 nM; in assay [1] it was 1.82 nM. For the same molecule, the inhibition in assay [2] came out at 2%; in assay [3] it was 1%. Moreover, the IC50 in assay [7] stood at 4.37 nM.

On to `Nc1nc(-c2ccccc2)nc2nn(-c3ccccc3)nc12`, for which the inhibition in assay [5] came out at 1%; in assay [2] it was 3%; in assay [3], 1%; in assay [4], 38%.

Take `O=c1[nH]c(-c2ccccc2)nc2nn(-c3ccccc3)nc12`: the inhibition in assay [5] was found to be 23%; in assay [2], 11%; in assay [3], 1%; in assay [4], 8%.

Molecule `COc1ccc(-c2nc(N)c3nn(-c4ccc(OC)cc4)cc3n2)cc1` had a Ki in assay [1] of 17 nM. In addition, the inhibition in assay [2] came out at 3%; in assay [3], 1%; in assay [4], 1%.

For `Nc1nc(Cc2cccs2)nc2cn(-c3ccccc3)nc12`, the Ki in assay [8] is 400 nM; in assay [1] it was 250 nM. Also, the inhibition came out at 35% in assay [2] and 1% in assay [3].

`O=C(Cc1ccccc1)Nc1nc(-c2cccs2)nc2cn(-c3ccccc3)nc12` had an inhibition constant (Ki) in assay [1] of 3.53 nM. Moreover, the inhibition in assay [2] was determined as 1%; in assay [3], 1%; in assay [4], 32%. The IC50 in assay [7] turned out to be 8.45 nM.

Regarding `Cc1ccc(-c2nc3cn(-c4ccccc4)nc3c(=O)[nH]2)o1`, the Ki in assay [1] turned out to be 868 nM. Besides, the inhibition in assay [2] amounted to 15%; in assay [3], 1%; in assay [4] it was 1%.

The molecule `O=C(Nc1nc(-c2ccccc2)nc2cn(-c3ccccc3)nc12)c1cccs1` returned a Ki in assay [1] of 5.87 nM. For the same molecule, the inhibition in assay [2] worked out at 1%; in assay [3] it was 1%; in assay [4], 18%. Besides, in assay [7], the half-maximal inhibitory concentration (IC50) is 13 nM.

In the case of `Cc1nc(N)c2nn(-c3ccccc3)nc2n1`, the Ki in assay [8] was 213 nM. Besides, the inhibition stood at 1% in assay [5], 6% in assay [2] and 1% in assay [3].

In turn, `Cc1nc2cn(Cc3ccccc3)nc2c(=O)[nH]1` displayed a Ki in assay [1] of 485 nM. The inhibition was found to be 1% in assay [2], 1% in assay [3] and 6% in assay [4].

Molecule `Cc1nc2cn(-c3ccccc3F)nc2c(=O)[nH]1` returned a Ki in assay [1] of 225 nM. In addition, the inhibition in assay [2], in assay [3] and in assay [4] was 1% in each case.
